Experimental findings from patent US20240173232A1, “COSMETIC COMPOSITION COMPRISING CARNITINE-SALICYLATE AS ACTIVE INGREDIENT” (LG HOUSEHOLD & HEALTH CARE LTD., priority 2021, published 2024) are described below.

One data set deals with pig back skin. The data set is described as follows: In vitro exfoliation efficacy (detached keratinocytes from pig back skin). The settings on record: 16 hours, n=5. On the procedure:
The pig back skin surface was washed with phosphate buffer saline (PBS) and then cut to a certain size. Thereafter, the stratum corneum of the pig skin was exposed and placed on a 96-well plate, 100 μl of each sample was applied, and the 96-well plate was left in a constant temperature and humidity chamber for 16 hours. Thereafter, the supernatant of each sample was mixed well with a trypan blue solution in the 96-well plate to measure the number of detached keratinocytes. In order to verify the suitability of the relative dead skin cell control efficacy evaluation method used in this study, the following method was used. […] After treating the pig skin with the sample by the method described above, the number of detached keratinocytes was counted, and the number of detached keratinocytes in PHA (DL-gluconolactone) at pH 4.0 was set to 100% to evaluate the relative exfoliation efficacy. All evaluations were made at n=5 to secure reliability through repeated results.

The subject of data set [1] is Raw 264.7 cells. Nature of the data set: NO production inhibition in LPS-treated Raw 264.7 cells (GRIESS method). It counts as cell-based, rat. The settings on record: LPS 500 ng/ml. The method, then: The anti-inflammatory effect of carnitine-salicylate (CA-SA) was confirmed experimentally.
In order to evaluate the efficacy of relieving inflammation caused by external stimuli in vitro, an experiment was performed by the GRIESS method using Raw 264.7 cells (ATCC number: CRL-2788), which are rat macrophage cell line, to evaluate the inhibition of NO production after treatment with lipopolysaccharide (LPS, Sigma Aldrich, USA). […] After removing the medium and performing starvation with a serum-free medium for 12 hours, the test material was treated at 0.1 to 100 ppm for 30 minutes, and then LPS was added at a concentration of 500 ng/ml and the cells were further cultured for 18 hours. After culturing, the supernatant was taken and transferred to a 96-well plate, GRIESS reagent was added and reacted at room temperature for 15 minutes, and absorbance at 540 nm was measured using an ELISA reader.

Data set [2] relates to Raw 264.7 cells. Nature of the data set: MTT cytotoxicity assay, Raw 264.7 cells. The settings on record: 24 hours. On the procedure: (§1) The cytotoxicity of carnitine-salicylate (CA-SA) was evaluated by 3-(4,5-dimethythiazol-2-yl)-2,5-diphenyl tetrazolium bromide (MTT) assay. […] After removing the medium and adding each sample to a medium without FBS and incubating for 24 hours, the medium was removed, an MTT solution was added at a concentration of […], and reacted at 37° C. for 3 hours. The unreacted MTT solution was removed, and 100 μl of DMSO was added to dissolve the formed reaction product, and then absorbance was measured at 540 nm to confirm the cytotoxicity.
(§2) The cytotoxicity of salicylate, carnitine, and carnitine-salicylate (CA-SA) was evaluated by treating Raw 264.7 cells, which are rat macrophages, and human fibroblasts with the material. As a Raw 264.7 cell is a representative cell used to measure NO inhibitory efficacy in anti-inflammatory efficacy evaluations, its cytotoxicity was evaluated, and cytotoxicity with respect to fibroblasts was evaluated in order to confirm the toxicity that may be induced when the material is included in cosmetics and be repeatedly applied to the skin.

Data set [3] has as its system fibroblasts obtained from human skin tissue. Nature of the data set: MTT cytotoxicity assay, human fibroblasts. The settings on record: 24 hours. On the procedure:
as §1, §2

[4] abbreviates: 2% (mixture 1% + 1%), pH 5.5, relative to 10% gluconolactone pH 4.0 = 100%.

Turning to `O=C1O[C@H](CO)[C@@H](O)[C@H](O)[C@H]1O` (racemic) [Gloconolactone, DL-gluconolactone], the “Exfoliation rate (%)” value is 100.0% in the data set with pig back skin (10%, pH 4, positive control set to 100%) and 32.0% with pig back skin (10%, pH 6, relative to gluconolactone pH 4.0 = 100%).
With `C[N+](C)(C)CC(O)CC(=O)[O-]` (centres unmarked) [CA, 4-trimethylamino-3-hydroxybutyric acid], the “Exfoliation rate (%)” value with pig back skin (setting [4]) is listed as 55.2%. Further, the inhibition at 10 ppm in the data set on Raw 264.7 cells [1] (Mus musculus, RAW264.7, 10 ppm (mixture 10 ppm + 10 ppm), 18 hours, read-out: NO inhibition rate) amounted to 0%.
Regarding `CC(=O)O.CNC(=N)NCCC[C@H](N)C(=O)O` [L-MMMA, NG-monomethyl-L-arginine acetate], in the data set on Raw 264.7 cells [1] (positive control), the NO inhibition rate amounted to 62.2%.
Consider `O=C(O)c1ccccc1O` [SA, salicylate], for which the “Exfoliation rate (%)” value in the data set with pig back skin (setting [4]) is 19.2%. The cell viability in the data set with Raw 264.7 cells [2] (50 ppm) came out at 96.16%; with Raw 264.7 cells [2] (100 ppm) it was 79.74%; in data set [3] (50 ppm), 94.83%; in data set [3] (100 ppm), 85.36%. Further, in the data set with Raw 264.7 cells [1] (10 ppm (mixture 10 ppm + 10 ppm), 18 hours), the NO inhibition rate was 16.4%.
